# Laboratory results as given in PubChem BioAssay (NCI).
#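 Test compounds were applied to cells in 96-well plates for 48 hours at 5 doses. At the GI50, growth is halved. The concentration for full growth arrest is given as TGI.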
# Tested on: HS 578T breast
# Assay: NCI anticancer screen, dose series, 48 h
SMILES,GI50 [nM],TGI [µM]
O=C(Nc1ccc(Cl)cc1)Nc1nccs1,1330,34.1
CS(=O)(=O)CS(=O)(=O)OCCCl,–,1790
COc1ccc(-c2ccc(NNC(=O)c3ccc(F)cc3)nn2)cc1OC,63900,> 100
Cc1noc2c1-c1ccccc1C(c1ccc(Cl)cc1)=N[C@H]2CC(N)=O,1590,> 85.6
O=C(N/N=C/c1ccc(O)cc1O)c1cccnc1,7260,82.1
O=C(NNc1cnccn1)c1nc2cc(F)ccc2n2cccc12,2830,> 100
NCCCOc1cc(Cl)ccc1NC(=O)c1cc2ccccc2cc1OCCCN,1590,3.57
C=C1C(=O)OC2C1CC(OC(C)=O)/C(C)=C/CCC1(C)OC21 (stereo not given),–,> 100
NCCCOc1cc2ccccc2cc1C(=O)NCCCOc1cc2ccccc2cc1C(=O)Nc1ccc(Cl)cc1O,1860,4.39
COc1cc(/C=C/C(=O)C(C(=O)/C=C/c2ccc(OC(=O)CCNC34CC5CC(CC(C5)C3)C4)c(OC)c2)C(=O)CCNC23CC4CC(CC(C4)C2)C3)ccc1OC(=O)CCNC12CC3CC(CC(C3)C1)C2 (stereo not given),2100,6.84
CCOC(=O)C1=C(N)Oc2c(sc3c(C)cccc23)C1c1ccc(F)cc1 (stereo not given),472,7.17
O=C1/C(=C/N2N=C(c3ccc4ccccc4c3)CC2c2ccccc2O)SC(=S)N1c1cccnc1 (stereo not given),2550,> 100
NC(N)=N/N=C(\N=Nc1ccccc1)c1ccc(Cl)cc1,4790,46.6
c1ccc2c(c1)c1ccccc1c1ccccc21,> 100000,> 100
Cc1c2c(C(N)=O)nccc2c(C)c2c1c1ccccc1n2Cc1ccccc1,–,31.5
NC(=O)CNc1ccc([As]=[As]c2ccc(NCC(N)=O)cc2)cc1 (stereo not given),1450,21.1

# Tested on: NCI-H23 lung
# Assay: NCI anticancer screen, dose series, 48 h
SMILES,GI50 [µM],TGI [µM]
O=C(Nc1ccc(Cl)cc1)Nc1nccs1,11.5,> 100
CS(=O)(=O)CS(=O)(=O)OCCCl,–,494
COc1ccc(-c2ccc(NNC(=O)c3ccc(F)cc3)nn2)cc1OC,> 100,> 100
Cc1noc2c1-c1ccccc1C(c1ccc(Cl)cc1)=N[C@H]2CC(N)=O,5.31,> 100
O=C(N/N=C/c1ccc(O)cc1O)c1cccnc1,5.92,> 100
O=C(NNc1cnccn1)c1nc2cc(F)ccc2n2cccc12,0.765,> 100
NCCCOc1cc(Cl)ccc1NC(=O)c1cc2ccccc2cc1OCCCN,1.51,3.03
C=C1C(=O)OC2C1CC(OC(C)=O)/C(C)=C/CCC1(C)OC21 (stereo not given),–,> 100
NCCCOc1cc2ccccc2cc1C(=O)NCCCOc1cc2ccccc2cc1C(=O)Nc1ccc(Cl)cc1O,0.598,2.3
COc1cc(/C=C/C(=O)C(C(=O)/C=C/c2ccc(OC(=O)CCNC34CC5CC(CC(C5)C3)C4)c(OC)c2)C(=O)CCNC23CC4CC(CC(C4)C2)C3)ccc1OC(=O)CCNC12CC3CC(CC(C3)C1)C2 (stereo not given),5.02,> 100
CCOC(=O)C1=C(N)Oc2c(sc3c(C)cccc23)C1c1ccc(F)cc1 (stereo not given),0.808,14.3
O=C1/C(=C/N2N=C(c3ccc4ccccc4c3)CC2c2ccccc2O)SC(=S)N1c1cccnc1 (stereo not given),3.03,> 100
NC(N)=N/N=C(\N=Nc1ccccc1)c1ccc(Cl)cc1,14.4,30
c1ccc2c(c1)c1ccccc1c1ccccc21,> 100,> 100
Cc1c2c(C(N)=O)nccc2c(C)c2c1c1ccccc1n2Cc1ccccc1,–,78.8
NC(=O)CNc1ccc([As]=[As]c2ccc(NCC(N)=O)cc2)cc1 (stereo not given),8.1,31.1

# Tested on: OVCAR-4 ovarian
# Assay: NCI anticancer screen, dose series, 48 h
SMILES,GI50 [µM],TGI [µM]
O=C(Nc1ccc(Cl)cc1)Nc1nccs1,8.38,> 100
CS(=O)(=O)CS(=O)(=O)OCCCl,–,1040
COc1ccc(-c2ccc(NNC(=O)c3ccc(F)cc3)nn2)cc1OC,55.3,> 100
Cc1noc2c1-c1ccccc1C(c1ccc(Cl)cc1)=N[C@H]2CC(N)=O,4.35,> 100
O=C(N/N=C/c1ccc(O)cc1O)c1cccnc1,0.692,11.9
O=C(NNc1cnccn1)c1nc2cc(F)ccc2n2cccc12,0.211,0.964
NCCCOc1cc(Cl)ccc1NC(=O)c1cc2ccccc2cc1OCCCN,1.51,2.91
C=C1C(=O)OC2C1CC(OC(C)=O)/C(C)=C/CCC1(C)OC21 (stereo not given),–,> 100
NCCCOc1cc2ccccc2cc1C(=O)NCCCOc1cc2ccccc2cc1C(=O)Nc1ccc(Cl)cc1O,0.247,0.737
COc1cc(/C=C/C(=O)C(C(=O)/C=C/c2ccc(OC(=O)CCNC34CC5CC(CC(C5)C3)C4)c(OC)c2)C(=O)CCNC23CC4CC(CC(C4)C2)C3)ccc1OC(=O)CCNC12CC3CC(CC(C3)C1)C2 (stereo not given),8.89,57.1
CCOC(=O)C1=C(N)Oc2c(sc3c(C)cccc23)C1c1ccc(F)cc1 (stereo not given),3.33,18.3
O=C1/C(=C/N2N=C(c3ccc4ccccc4c3)CC2c2ccccc2O)SC(=S)N1c1cccnc1 (stereo not given),4.41,> 100
NC(N)=N/N=C(\N=Nc1ccccc1)c1ccc(Cl)cc1,1.79,12.6
c1ccc2c(c1)c1ccccc1c1ccccc21,> 100,> 100
Cc1c2c(C(N)=O)nccc2c(C)c2c1c1ccccc1n2Cc1ccccc1,–,7.47
NC(=O)CNc1ccc([As]=[As]c2ccc(NCC(N)=O)cc2)cc1 (stereo not given),2.61,49.7

# Tested on: PC-3 prostate
# Assay: NCI anticancer screen, dose series, 48 h
SMILES,GI50 [nM],TGI [µM]
O=C(Nc1ccc(Cl)cc1)Nc1nccs1,2790,40.3
CS(=O)(=O)CS(=O)(=O)OCCCl,–,990
COc1ccc(-c2ccc(NNC(=O)c3ccc(F)cc3)nn2)cc1OC,50500,> 100
Cc1noc2c1-c1ccccc1C(c1ccc(Cl)cc1)=N[C@H]2CC(N)=O,12000,> 100
O=C(N/N=C/c1ccc(O)cc1O)c1cccnc1,4140,46.9
O=C(NNc1cnccn1)c1nc2cc(F)ccc2n2cccc12,527,> 100
NCCCOc1cc(Cl)ccc1NC(=O)c1cc2ccccc2cc1OCCCN,1410,2.83
C=C1C(=O)OC2C1CC(OC(C)=O)/C(C)=C/CCC1(C)OC21 (stereo not given),–,> 100
NCCCOc1cc2ccccc2cc1C(=O)NCCCOc1cc2ccccc2cc1C(=O)Nc1ccc(Cl)cc1O,306,0.974
COc1cc(/C=C/C(=O)C(C(=O)/C=C/c2ccc(OC(=O)CCNC34CC5CC(CC(C5)C3)C4)c(OC)c2)C(=O)CCNC23CC4CC(CC(C4)C2)C3)ccc1OC(=O)CCNC12CC3CC(CC(C3)C1)C2 (stereo not given),3860,25.1
CCOC(=O)C1=C(N)Oc2c(sc3c(C)cccc23)C1c1ccc(F)cc1 (stereo not given),496,14.8
O=C1/C(=C/N2N=C(c3ccc4ccccc4c3)CC2c2ccccc2O)SC(=S)N1c1cccnc1 (stereo not given),518,> 100
NC(N)=N/N=C(\N=Nc1ccccc1)c1ccc(Cl)cc1,2480,11.3
c1ccc2c(c1)c1ccccc1c1ccccc21,> 100000,> 100
Cc1c2c(C(N)=O)nccc2c(C)c2c1c1ccccc1n2Cc1ccccc1,–,27.7
NC(=O)CNc1ccc([As]=[As]c2ccc(NCC(N)=O)cc2)cc1 (stereo not given),2700,22.7

# Tested on: SF-268 CNS
# Assay: NCI anticancer screen, dose series, 48 h
SMILES,GI50 [nM],TGI [µM]
O=C(Nc1ccc(Cl)cc1)Nc1nccs1,8530,63.1
CS(=O)(=O)CS(=O)(=O)OCCCl,–,990
COc1ccc(-c2ccc(NNC(=O)c3ccc(F)cc3)nn2)cc1OC,79800,> 100
Cc1noc2c1-c1ccccc1C(c1ccc(Cl)cc1)=N[C@H]2CC(N)=O,33800,> 100
O=C(N/N=C/c1ccc(O)cc1O)c1cccnc1,2220,59.4
O=C(NNc1cnccn1)c1nc2cc(F)ccc2n2cccc12,551,> 100
NCCCOc1cc(Cl)ccc1NC(=O)c1cc2ccccc2cc1OCCCN,1290,2.63
C=C1C(=O)OC2C1CC(OC(C)=O)/C(C)=C/CCC1(C)OC21 (stereo not given),–,> 100
NCCCOc1cc2ccccc2cc1C(=O)NCCCOc1cc2ccccc2cc1C(=O)Nc1ccc(Cl)cc1O,904,3.17
COc1cc(/C=C/C(=O)C(C(=O)/C=C/c2ccc(OC(=O)CCNC34CC5CC(CC(C5)C3)C4)c(OC)c2)C(=O)CCNC23CC4CC(CC(C4)C2)C3)ccc1OC(=O)CCNC12CC3CC(CC(C3)C1)C2 (stereo not given),2700,10.9
CCOC(=O)C1=C(N)Oc2c(sc3c(C)cccc23)C1c1ccc(F)cc1 (stereo not given),1610,19.4
O=C1/C(=C/N2N=C(c3ccc4ccccc4c3)CC2c2ccccc2O)SC(=S)N1c1cccnc1 (stereo not given),4080,> 100
NC(N)=N/N=C(\N=Nc1ccccc1)c1ccc(Cl)cc1,3530,15.7
c1ccc2c(c1)c1ccccc1c1ccccc21,> 100000,> 100
Cc1c2c(C(N)=O)nccc2c(C)c2c1c1ccccc1n2Cc1ccccc1,–,97.5
NC(=O)CNc1ccc([As]=[As]c2ccc(NCC(N)=O)cc2)cc1 (stereo not given),2730,14
